Measurements as given in patent EP0527427A2, “Catalysts and casting article, method, and composition” (MINNESOTA MINING AND MANUFACTURING COMPANY, priority 1991, dated 1993).

What was measured:
[1] = Farm.Zh. (Kiev) 1990, 1, 38; cited from earlier work
[2] = Khim.-Farm.Zh. 1983, 17, 916; cited from earlier work
[3] = pKa by potentiometric backtitration (compounds of Formula II, Table IX); assay type: physicochemical; settings: half-neutralization point taken as pKa; backtitration with 0.01N sodium hydroxide
Protocol: Several of the compounds of the invention were characterized by their titration curves (i.e., their pKa values) as follows: To a 0.1 g sample of a compound of the invention was added with stirring 60 mL of distilled water, then 10 mL of 0.1N hydrochloric acid was added. The solution was stirred for 10 minutes. The pH of the solution was then measured potentiometrically using a Metrohm Model 670 TITROPROCESSOR™ potentiometer (Brinkman Instruments Inc., Westbury, NY) while backtitrating with 0.01N sodium hydroxide solution. The endpoints and half-neutralization points were determined by the instrument, and for the purposes of this determination the half-neutralization point is taken as the pKa.

[4] = pKa by potentiometric backtitration (catalysts, Table I); assay type: physicochemical; settings: half-neutralization point taken as pKa; backtitration with 0.1N sodium hydroxide
Protocol: The solution was stirred for 10 minutes, then backtitrated with 0.1N sodium hydroxide solution. The pH during backtitration was measured potentiometrically using a Metrohm Model 670 TITROPROCESSOR™ potentiometer (Brinkman Instruments Inc., Westbury, NY). The endpoint and half-neutralization point were determined by the instrument, and for the purposes of this determination the half-neutralization point is taken as the pKa.

Compound | Measured pKa first [3] | Measured pKa second [3] | further results
CCN(CC)CCOC(=O)CN(C)C [2-(Diethylamino)ethyl dimethylaminoacetate] |  |  | inotropic activity [1]: significant inotropic activity; analgesic activity [2]: analgesic activity
CN1CCCCC1COC(=O)CN1CCCC1 (stereo not shown) [2-(1-Methylpiperidyl)methyl 1-Pyrrolidineacetate] | 9.15 | 7.03 | 
O=C(CN1CCCC1)OCCN1CCCCC1 [2-(1-piperidino)ethyl 1-pyrrolidineacetate] | 8.97 | 6.72 | 
CN(C)CCOC(=O)CN(C)C [(CH3)2NCH2C(O)OCH2CH2N(CH3)2, 2-(N,N-Dimethylamino)ethyl N,N-Dimethylaminoacetate] |  |  | Measured pKa first [4]: 8.53; Measured pKa second [4]: 6.49
O=C(CN1CCCC1)OCCN1CCCC1 [2-(1-Pyrrolidinyl)ethyl 1-Pyrrolidineacetate] | 9.26 | 7.12 | 
